Assay results reported in PubChem BioAssay (NCI).
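All cell lines were grown in 96-well plates and treated with compound for 48 hours. At the GI50, growth is halved. Definition used: TGI = concentration required for complete inhibition of growth.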

Assays:
Experiment in all cases: NCI anticancer screen, dose series, 48 h; in the data active = GI50 below about 0.43 µM; inactive = the rest
786-0 renal = test system: 786-0 renal
A498 renal = test system: A498 renal
A549 NSCLC = test system: A549 NSCLC
ACHN renal = test system: ACHN renal
BT-549 breast = test system: BT-549 breast
CAKI-1 renal = test system: CAKI-1 renal
CCRF-CEM leukemia = test system: CCRF-CEM leukemia
COLO 205 colon = test system: COLO 205 colon
DU-145 prostate = test system: DU-145 prostate
EKVX NSCLC = test system: EKVX NSCLC
HCC-2998 colon = test system: HCC-2998 colon
HCT-116 colon = test system: HCT-116 colon
HCT-15 colon = test system: HCT-15 colon
HL-60(TB) leukemia = test system: HL-60(TB) leukemia
HOP-62 NSCLC = test system: HOP-62 NSCLC
HOP-92 NSCLC = test system: HOP-92 NSCLC
HS 578T breast = test system: HS 578T breast
HT29 colon = test system: HT29 colon
IGROV1 ovarian = test system: IGROV1 ovarian
K-562 leukemia = test system: K-562 leukemia
KM12 colon = test system: KM12 colon
LOX IMVI melanoma = test system: LOX IMVI melanoma
M14 melanoma = test system: M14 melanoma
MALME-3M melanoma = test system: MALME-3M melanoma
MCF7 breast = test system: MCF7 breast
MDA-MB-231 breast = test system: MDA-MB-231 breast
MDA-MB-435 = test system: MDA-MB-435
MOLT-4 leukemia = test system: MOLT-4 leukemia
NCI-H226 lung = test system: NCI-H226 lung
NCI-H23 lung = test system: NCI-H23 lung
NCI-H460 lung = test system: NCI-H460 lung
NCI-H522 lung = test system: NCI-H522 lung
NCI/ADR-RES ovarian = test system: NCI/ADR-RES ovarian
OVCAR-3 ovarian = test system: OVCAR-3 ovarian
OVCAR-4 ovarian = test system: OVCAR-4 ovarian
OVCAR-5 ovarian = test system: OVCAR-5 ovarian
OVCAR-8 ovarian = test system: OVCAR-8 ovarian
PC-3 prostate = test system: PC-3 prostate
RPMI-8226 leukemia = test system: RPMI-8226 leukemia
RXF 393 renal = test system: RXF 393 renal
SF-268 CNS = test system: SF-268 CNS
SF-295 CNS = test system: SF-295 CNS
SF-539 CNS = test system: SF-539 CNS
SK-MEL-2 melanoma = test system: SK-MEL-2 melanoma
SK-MEL-28 melanoma = test system: SK-MEL-28 melanoma
SK-MEL-5 melanoma = test system: SK-MEL-5 melanoma
SK-OV-3 ovarian = test system: SK-OV-3 ovarian
SN12C renal = test system: SN12C renal
SNB-19 CNS = test system: SNB-19 CNS
SNB-75 CNS = test system: SNB-75 CNS
SR leukemia = test system: SR leukemia
SW-620 colon = test system: SW-620 colon
T-47D breast = test system: T-47D breast
TK-10 renal = test system: TK-10 renal
U251 CNS = test system: U251 CNS
UACC-257 melanoma = test system: UACC-257 melanoma
UACC-62 melanoma = test system: UACC-62 melanoma
UO-31 renal = test system: UO-31 renal

NC(=N\N=C/c1ccc(Cl)cc1Cl)/C(N)=N\N=C/c1ccc(Cl)cc1Cl
63.9 µM: TGI (RXF 393 renal)
19 µM: TGI (U251 CNS)
> 100 µM: TGI (A549 NSCLC) | TGI (CAKI-1 renal) | TGI (CCRF-CEM leukemia) | TGI (COLO 205 colon) | TGI (DU-145 prostate) | TGI (EKVX NSCLC) | TGI (HCC-2998 colon) | TGI (HCT-116 colon) | TGI (HCT-15 colon) | TGI (HL-60(TB) leukemia) | TGI (HT29 colon) | TGI (IGROV1 ovarian) | TGI (K-562 leukemia) | TGI (KM12 colon) | TGI (LOX IMVI melanoma) | TGI (M14 melanoma) | TGI (MALME-3M melanoma) | TGI (MCF7 breast) | TGI (MDA-MB-231 breast) | TGI (MDA-MB-435) | TGI (MOLT-4 leukemia) | TGI (NCI-H23 lung) | TGI (NCI-H460 lung) | TGI (NCI-H522 lung) | TGI (NCI/ADR-RES ovarian) | TGI (OVCAR-5 ovarian) | TGI (OVCAR-8 ovarian) | TGI (PC-3 prostate) | TGI (RPMI-8226 leukemia) | TGI (SF-268 CNS) | TGI (SF-539 CNS) | TGI (SK-MEL-28 melanoma) | TGI (SK-MEL-5 melanoma) | TGI (SN12C renal) | TGI (SNB-19 CNS) | TGI (SR leukemia) | TGI (SW-620 colon) | TGI (UACC-257 melanoma) | TGI (UACC-62 melanoma)
13.4 µM: TGI (SNB-75 CNS)
56.1 µM: TGI (HOP-92 NSCLC)
89.8 µM: TGI (SF-295 CNS)
15.6 µM: TGI (ACHN renal)
1.65 µM: TGI (OVCAR-4 ovarian)
> 93.2 µM: TGI (BT-549 breast)
98 µM: TGI (NCI-H226 lung)
8.37 µM: TGI (A498 renal)
> 93.6 µM: TGI (SK-MEL-2 melanoma)
11.3 µM: TGI (SK-OV-3 ovarian)
> 83.6 µM: TGI (UO-31 renal)
> 73.8 µM: TGI (OVCAR-3 ovarian)
> 30.4 µM: TGI (HS 578T breast)
38.7 µM: TGI (HOP-62 NSCLC)
16.7 µM: TGI (786-0 renal) | TGI (TK-10 renal)
active: GI50 (OVCAR-4 ovarian) 0.34 µM
> 76.4 µM: TGI (T-47D breast)
inactive: GI50 (786-0 renal) 1.32 µM | GI50 (A498 renal) 2.21 µM | GI50 (A549 NSCLC) 5.99 µM | GI50 (ACHN renal) 0.576 µM | GI50 (BT-549 breast) 45.3 µM | GI50 (CAKI-1 renal) 16.3 µM | GI50 (CCRF-CEM leukemia) 36.5 µM | GI50 (COLO 205 colon) 46.2 µM | GI50 (DU-145 prostate) > 100 µM | GI50 (EKVX NSCLC) 30.7 µM | GI50 (HCC-2998 colon) > 94.7 µM | GI50 (HCT-116 colon) 1.19 µM | GI50 (HCT-15 colon) > 100 µM | GI50 (HL-60(TB) leukemia) > 100 µM | GI50 (HOP-62 NSCLC) 15.1 µM | GI50 (HOP-92 NSCLC) 6.54 µM | GI50 (HS 578T breast) 3.39 µM | GI50 (HT29 colon) > 100 µM | GI50 (IGROV1 ovarian) 4 µM | GI50 (K-562 leukemia) 63.1 µM | GI50 (KM12 colon) > 100 µM | GI50 (LOX IMVI melanoma) 25.5 µM | GI50 (M14 melanoma) > 83.1 µM | GI50 (MALME-3M melanoma) 41.3 µM | GI50 (MCF7 breast) > 73.8 µM | GI50 (MDA-MB-231 breast) 17.1 µM | GI50 (MDA-MB-435) > 100 µM | GI50 (MOLT-4 leukemia) > 100 µM | GI50 (NCI-H226 lung) 9.92 µM | GI50 (NCI-H23 lung) 39.3 µM | GI50 (NCI-H460 lung) 0.795 µM | GI50 (NCI-H522 lung) 63 µM | GI50 (NCI/ADR-RES ovarian) 38.7 µM | GI50 (OVCAR-3 ovarian) 12.3 µM | GI50 (OVCAR-5 ovarian) > 100 µM | GI50 (OVCAR-8 ovarian) 20.7 µM | GI50 (PC-3 prostate) > 100 µM | GI50 (RPMI-8226 leukemia) > 100 µM | GI50 (RXF 393 renal) 12.8 µM | GI50 (SF-268 CNS) 50.4 µM | GI50 (SF-295 CNS) 2.84 µM | GI50 (SF-539 CNS) 8.3 µM | GI50 (SK-MEL-2 melanoma) > 57.1 µM | GI50 (SK-MEL-28 melanoma) > 100 µM | GI50 (SK-MEL-5 melanoma) > 100 µM | GI50 (SK-OV-3 ovarian) 1.16 µM | GI50 (SN12C renal) 30.7 µM | GI50 (SNB-19 CNS) 26.8 µM | GI50 (SNB-75 CNS) 1.65 µM | GI50 (SR leukemia) > 100 µM | GI50 (SW-620 colon) > 54.3 µM | GI50 (T-47D breast) 1.35 µM | GI50 (TK-10 renal) 1.25 µM | GI50 (U251 CNS) 1.02 µM | GI50 (UACC-257 melanoma) > 100 µM | GI50 (UACC-62 melanoma) > 69.2 µM | GI50 (UO-31 renal) 13.3 µM
